Laboratory results from US10722475B2, “Stealth nanocapsules for protein delivery” (THE REGENTS OF THE UNIVERSITY OF CALIFORNIA, priority 2014, dated 2020).
Values belong to the compound of their own block, whether it stands above or below them.

What was measured:
[1] = molecular target: T1, native horseradish peroxidase (HRP) (Armoracia rusticana, UniProt P00433); assay: Activity assay, oxidation rate of TMB with H2O2 as substrate; assay type: biochemical
T1 construct: H2O2 substrate with TMB
T1 sequence (P00433 31-338): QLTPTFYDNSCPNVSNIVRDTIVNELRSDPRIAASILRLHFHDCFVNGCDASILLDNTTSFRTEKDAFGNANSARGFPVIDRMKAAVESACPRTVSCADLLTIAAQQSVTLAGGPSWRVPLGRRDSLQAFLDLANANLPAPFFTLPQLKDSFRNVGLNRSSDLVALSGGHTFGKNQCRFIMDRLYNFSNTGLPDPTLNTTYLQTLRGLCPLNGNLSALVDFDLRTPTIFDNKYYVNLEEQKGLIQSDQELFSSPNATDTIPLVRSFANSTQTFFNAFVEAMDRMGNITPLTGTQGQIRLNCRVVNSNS

[2] = tested on: pMPC-nHRP (horseradish peroxidase encapsulated in a pMPC nanocapsule)
Description: (§1) To verify this, four enzymes, including horseradish peroxidase (HRP), glucose oxidase (GOx), uricase (UOx), and alcohol oxidase (AOx), were encapsulated with the same method, and their enzymatic activities were compared with their native counterparts, respectively.
(§2) After acryloxylation, protein was encapsulated with pMPC using a in situ polymerization method. For the polymerization, 2-Methacryloyloxyethyl phosphorylcholine (MPC) and bis-methacrylamide (BIS) were first prepared as 10% (w/v) stock solution in DI-water and anhydrous DMSO, respectively. The final protein concentration was tuned to 1 mg/mL by diluting with phosphate buffer (50 mM, pH 7.0). Polymerization was initiated by the addition of ammonium persulfate (APS) and tetramethylethylenediamine (TEMED) and kept at room temperature for 2 h. After the polymerization, the solution was dialyzed against PBS to remove unreacted monomers and by-products. The detailed synthesis parameters of pMPC-nEGFP, pMPC-nOVA, pMPC-nHRP, pMPC-nGOx, pMPC-nUOx, pMPC-nAOx, pMPC-nTf, and pMPC-nBSA were listed in Table 5.
(§3) The activity of pMPC-nHRP and native HRP were determined by monitoring the oxidation rate of 3,3′,5,5′-tetramethylbenzidine (TMB) using hydrogen peroxide (H2O2) as the substrate. Briefly, a series of H2O2 stock solutions with concentrations of 0.001%, 0.002%, 0.003%, 0.004%, 0.006%, 0.008% (w/v) was prepared by diluting a 50% H2O2 (w/v) with 0.1 M acetate buffer (pH 5.01) with 0.5 mM TMB. After mixing 1 mL of the substrate solution with 1 μL of pMPC-nHRP (0.1 mg/mL) or native HRP, the absorbance at 655 nm (A655) of the reaction solution was monitored with a UV-Vis spectrometer for 3 min. The absorption curve was plotted versus time and ΔA655/min from the linear portion of the curve was calculated. The activity assays were repeated with a series of concentrations of substrate to get the catalytic rates to obtain KM^app and kcat^app by the Lineweaver—Burk plot.

[3] = tested on: native glucose oxidase (GOx); assay: Activity assay, HRP-coupled oxidation rate of TMB with D-gluocose; assay type: biochemical
Procedure: (§6) The activity of native GOx, pMPC-nGOx, native AOx, and pMPC-nAOx were determined with a similar method. Briefly, the initial reaction rates were determined by monitoring the oxidation rates of TMB of GOx and AOx when incubating with the assay solutions with different concentrations of substrates, respectively. For native GOx and pMPC-nGOx, the assay solutions were prepared by mixing TMB (0.5 mM), native HRP (0.001 mg/mL), and different amount of D-gluocose (0.005%, 0.010%, 0.015%, 0.020%, 0.030%, 0.040%, w/v) in 0.1 M phosphate buffer (pH 7.0). […] The measurements were achieved by monitoring the A655 of the reaction solutions during the incubation of 1 μL of native enzyme or pMPC-nProtein (0.5 mg/mL for native GOx and pMPC-nGOx, 1 mg/mL for native AOx and pMPC-nAOx) with their corresponding assay solution.

[4] = tested on: pMPC-nGOx (glucose oxidase encapsulated in a pMPC nanocapsule); assay: as above; assay type: biochemical
Procedure: as §6

[5] = tested on: native alcohol oxidase (AOx)
Procedure: as §1, §3
(§4) The activity of native GOx, pMPC-nGOx, native AOx, and pMPC-nAOx were determined with a similar method. Briefly, the initial reaction rates were determined by monitoring the oxidation rates of TMB of GOx and AOx when incubating with the assay solutions with different concentrations of substrates, respectively. For native GOx and pMPC-nGOx, the assay solutions were prepared by mixing TMB (0.5 mM), native HRP (0.001 mg/mL), and different amount of D-gluocose (0.005%, 0.010%, 0.015%, 0.020%, 0.030%, 0.040%, w/v) in 0.1 M phosphate buffer (pH 7.0). For native AOx and pMPC-nAOx, the assay solutions were composed by TMB (0.5 mM), native HRP (0.001 mg/mL), and different amount of ethanol (0.0025%, 0.005%, 0.0075%, 0.010%, 0.020%, 0.030%, w/v) in 0.1 M phosphate buffer (pH 7.0). The measurements were achieved by monitoring the A655 of the reaction solutions during the incubation of 1 μL of native enzyme or pMPC-nProtein (0.5 mg/mL for native GOx and pMPC-nGOx, 1 mg/mL for native AOx and pMPC-nAOx) with their corresponding assay solution.

[6] = tested on: pMPC-nAOx (alcohol oxidase encapsulated in a pMPC nanocapsule)
Description: as §1, §2, §3
as §4, with “The measurements were achieved by monitoring the A655 of the reaction solutions during the incubation of 1 μL of native enzyme or pMPC-nProtein (0.5 mg/mL for native GOx and pMPC-nGOx, 1 mg/mL for native AOx and pMPC-nAOx) with their corresponding assay solution.” left out

native uricase (UOx) = assay: Activity assay, decrease of A290 with urate; assay type: biochemical
Description: (§5) The initial rates were achieved by plotting the absorption at 290 nm versus time and calculating the ΔA290/min from the linear portion of the curve.

[7] = tested on: pMPC-nUOx (uricase encapsulated in a pMPC nanocapsule); assay: Activity assay, decrease of A290 with urate; assay type: biochemical
Description: as §5

Structure (SMILES): OO [H2O2, hydrogen peroxide]
Kcat^app/KM^app relative to native ([1]; native HRP = 100%): 100 ± 22.7% | kcat^app ([1]; native HRP, 0.1 M acetate buffer pH 5.01, 0.5 mM TMB, Lineweaver-Burk): 403 s⁻¹ | Kcat^app/KM^app relative to native ([2]; pMPC-nHRP vs native HRP): 91.1 ± 28.1% | kcat^app ([2]; pMPC-nHRP, 0.1 M acetate buffer pH 5.01, 0.5 mM TMB, Lineweaver-Burk): 480 s⁻¹ | Kcat^app/KM^app ([2]; pMPC-nHRP, pH 5.01, 0.5 mM TMB): 3966.9 ± 1114.7 mM⁻¹ s⁻¹ | Km ([2]; read-out: KM^app, pMPC-nHRP, 0.1 M acetate buffer pH 5.01, 0.5 mM TMB, Lineweaver-Burk): 121 ± 34 µM

Structure (SMILES): OC[C@H]1OC(O)[C@H](O)[C@@H](O)[C@@H]1O (stereo partly drawn) [D-gluocose]
Kcat^app/KM^app relative to native ([3]; native GOx = 100%): 100 ± 34.5% | kcat^app ([3]; native GOx, 0.1 M phosphate buffer pH 7.0, 0.5 mM TMB, HRP 0.001 mg/mL): 87.9 s⁻¹ | Km ([3]; native GOx, 0.1 M phosphate buffer pH 7.0, 0.5 mM TMB, HRP 0.001 mg/mL, read-out: KM^app): 18 ± 6.21 mM | Kcat^app/KM^app ([3]; native GOx, pH 7.0): 4.883 ± 1.684 mM⁻¹ s⁻¹ | Kcat^app/KM^app relative to native ([4]; pMPC-nGOx vs native GOx): 73.7 ± 31.1% | kcat^app ([4]; pMPC-nGOx, 0.1 M phosphate buffer pH 7.0, 0.5 mM TMB, HRP 0.001 mg/mL): 77.6 s⁻¹ | Km ([4]; pMPC-nGOx, 0.1 M phosphate buffer pH 7.0, 0.5 mM TMB, HRP 0.001 mg/mL, read-out: KM^app): 21.6 ± 6.7 mM | Kcat^app/KM^app ([4]; pMPC-nGOx, pH 7.0): 3.600 ± 1.119 mM⁻¹ s⁻¹

Kcat^app/KM^app relative to native ([5]; native AOx = 100%): 100 ± 23.61% | kcat^app ([5]; native AOx, 0.1 M phosphate buffer pH 7.0, 0.5 mM TMB, HRP 0.001 mg/mL): 18.8 s⁻¹ | Kcat^app/KM^app ([5]; native AOx, pH 7.0): 6.047 ± 1.428 mM⁻¹ s⁻¹ | Km ([5]; read-out: KM^app, native AOx, 0.1 M phosphate buffer pH 7.0, 0.5 mM TMB, HRP 0.001 mg/mL): 3.11 ± 0.72 mM | Kcat^app/KM^app relative to native ([6]; pMPC-nAOx vs native AOx): 75.6 ± 28.00% | kcat^app ([6]; pMPC-nAOx, 0.1 M phosphate buffer pH 7.0, 0.5 mM TMB, HRP 0.001 mg/mL): 23.4 s⁻¹ | Kcat^app/KM^app ([6]; pMPC-nAOx, pH 7.0): 4.570 ± 1.279 mM⁻¹ s⁻¹ | Km ([6]; read-out: KM^app, pMPC-nAOx, 0.1 M phosphate buffer pH 7.0, 0.5 mM TMB, HRP 0.001 mg/mL): 5.12 ± 1.43 mM
Structure (SMILES): CCO [ethanol]

Kcat^app/KM^app relative to native (native uricase (UOx); native UOx = 100%): 100 ± 7.7% | kcat^app (native uricase (UOx); native UOx, 0.1 M borate buffer pH 8): 3.36 s⁻¹ | Km (native uricase (UOx); native UOx, 0.1 M borate buffer pH 8, read-out: KM^app): 21.9 ± 1.7 µM | Kcat^app/KM^app (native uricase (UOx); native UOx, pH 8): 153.4 ± 11.8 mM⁻¹ s⁻¹ | Kcat^app/KM^app relative to native ([7]; pMPC-nUOx vs native UOx): 90.4 ± 16.5% | kcat^app ([7]; pMPC-nUOx, 0.1 M borate buffer pH 8): 3.59 s⁻¹ | Km ([7]; pMPC-nUOx, 0.1 M borate buffer pH 8, read-out: KM^app): 25.9 ± 4.3 µM | Kcat^app/KM^app ([7]; pMPC-nUOx, pH 8): 138.6 ± 22.9 mM⁻¹ s⁻¹
Structure (SMILES): O=c1[nH]c(=O)c2[nH]c(=O)[nH]c2[nH]1 [urate]
